According to ChEMBL document CHEMBL5137126, “Alliacane-Type Secondary Metabolites from Submerged Cultures of the Basidiomycete Clitocybe nebularis” (J Nat Prod, 2022):
≈ marks a conversion by molar mass, not a printed value.

Key:
Mucor hiemalis = test: Antifungal activity against Mucor hiemalis DSM2656 assessed as inhibition of fungal growth incubated overnight by serial dilution method; format: functional
Wickerhamomyces anomalus = test: Antifungal activity against Pichia anomala DSM6766 assessed as inhibition of fungal growth incubated overnight by serial dilution method; format: functional
Rhodotorula glutinis = test: Antifungal activity against Rhodotorula glutinis DSM10134 assessed as inhibition of fungal growth incubated for 48 hrs by serial dilution method; format: functional
[1] = test system: Schizosaccharomyces pombe; test: Antifungal activity against Schizosaccharomyces pombe DSM70572 assessed as inhibition of fungal growth incubated for 48 hrs by serial dilution method; format: functional
L929 = test: Cytotoxicity against mouse L929 cells assessed as inhibition of cell growth at 0.0006 to 0.037 ug/ml incubated for 5 days by MTT assay; format: toxicity, cell-based; conditions: l929, 120 h, dose 0.0006-0.037 µg/ml, time 5 day
[2] = Cytotoxicity against mouse L929 cells assessed as inhibition of cell growth incubated for 5 days by MTT assay; format: toxicity, cell-based
KB 3-1 = test: Cytotoxicity against human KB 3-1 cells assessed as inhibition of cell growth incubated for 5 days by MTT assay; format: functional, cell-based; conditions: KB 3-1, 120 h
MCF7 = test: Cytotoxicity against human MCF7 cells assessed as inhibition of cell growth incubated for 5 days by MTT assay; format: functional, cell-based; conditions: MCF7, 120 h
SK-OV-3 = test: Cytotoxicity against human SK-OV-3 cells assessed as inhibition of cell growth incubated for 5 days by MTT assay; format: functional, cell-based; conditions: SK-OV-3, 120 h
PC-3 = test: Cytotoxicity against human PC-3 cells assessed as inhibition of cell growth incubated for 5 days by MTT assay; format: functional, cell-based; conditions: PC-3, 120 h
A-431 = test: Cytotoxicity against human A-431 cells assessed as inhibition of cell growth incubated for 5 days by MTT assay; format: functional, cell-based; conditions: A-431, 120 h
A549 = test: Cytotoxicity against human A549 cells assessed as inhibition of cell growth incubated for 5 days by MTT assay; format: functional, cell-based; conditions: A549, 120 h
Bacillus subtilis = test: Antibacterial activity against Bacillus subtilis DSM 10 assessed as inhibition of bacterial growth incubated overnight by serial dilution method; format: functional
Candida albicans = test: Antifungal activity against Candida albicans DSM1665 assessed as inhibition of fungal growth incubated overnight by serial dilution method; format: functional

With NYSTATIN the MIC (Mucor hiemalis) was 9.2 µg/mL, the MIC (Wickerhamomyces anomalus) was 4.6 µg/mL and the MIC (Rhodotorula glutinis) was 1 µg/mL. It also gave an MIC [1] of 4.2 µg/mL.

In the case of `C[C@@H]1C(=O)c2occ(CO)c2[C@]2(O)CC(C)(C)C[C@H]12`, the Activity (L929) is reported as “Non-Toxic”.

In the case of `C/C(=C\c1csc(C)n1)[C@H]1C[C@H]2O[C@@]2(C)CCC[C@H](C)[C@@H](O)[C@@H](C)C(=O)C(C)(C)[C@H](O)CC(=O)O1`, the IC50 at 5 days [2] is reported as 0.001 µM, the IC50 (KB 3-1) is reported as 0.0028 µM and the IC50 (MCF7) is reported as 0.0027 µM. The IC50 (SK-OV-3) was 0.0075 µM, the IC50 (PC-3) was 0.003 µM and the IC50 (A-431) was 0.0031 µM. For the same molecule, the IC50 (A549) was 0.0034 µM.

For `C=C(C(=O)O)[C@]12O[C@]13CC(C)(C)C[C@@H]3[C@H](C)[C@H](O)C2=O`, the IC50 at 5 days [2] was 22 µM, the IC50 (KB 3-1) was 18 µM and the IC50 (MCF7) was 8 µM. It also gave an IC50 (SK-OV-3) of 20 µM, an IC50 (PC-3) of 36 µM and an IC50 (A-431) of 7 µM. It also gave an IC50 (A549) of 53 µM.

Molecule `C[C@@H]1C(=O)c2[nH]cc(CO)c2C2=CC(C)(C)C[C@@H]21` has an MIC (Rhodotorula glutinis) of 66.6 µg/mL (≈ 271 µM), an IC50 at 5 days [2] of 68 µM and an IC50 (KB 3-1) of 47 µM.

For `C=C(C(=O)O)C1=C2CC(C)(C)C[C@@H]2[C@H](C)CC1=O`, the Activity (L929) was “Non-Toxic”.

For `CN(C)[C@@H]1C(O)=C(C(N)=O)C(=O)[C@@]2(O)C(O)=C3C(=O)c4c(O)cccc4[C@@](C)(O)[C@H]3[C@H](O)[C@@H]12` [OXYTETRACYCLINE], the MIC (Bacillus subtilis) was 9.2 µg/mL (≈ 20 µM).

Work on `Cc1cc2[nH]cc(C=O)c2c2c1CC(C)(C)C2` yielded an MIC (Bacillus subtilis) of 66.6 µg/mL (≈ 293 µM), an MIC (Candida albicans) of 66.6 µg/mL (≈ 293 µM) and an MIC (Mucor hiemalis) of 16.6 µg/mL (≈ 73 µM). The MIC (Wickerhamomyces anomalus; Hansenula anomala) was 33.3 µg/mL (≈ 146 µM), the MIC (Rhodotorula glutinis) was 4.2 µg/mL (≈ 18.5 µM) and the MIC [1] was 33.3 µg/mL (≈ 146 µM). For the same molecule, the IC50 at 5 days [2] was 41 µM and the IC50 (KB 3-1) was 21 µM.
